# Laboratory results as given in US10604554B2, “Double-acylated GLP-1 derivatives” (Novo Nordisk A/S, priority 2012, dated 2020).
# Like-named read-outs stand apart in the source and are kept apart here. Numbered stars: 1 amine (or outer) side, 2 acyl side, 3 side chain; on linkers, the order of the positions; unused ones are H or OH. Square brackets hold non-standard residues; d marks the D form. Side chains are listed from the residue outwards. Peptide text beside a SMILES is read from it. * marks the point of attachment. Decanoyl(10-(4-HOOC-PhO)) = O=C(O)c1ccc(OCCCCCCCCCC(=O)*)cc1; γGlu = O=C(O)[C@H](CCC(=O)[*:2])N[*:1]; εLys = N[C@@H](CCCCN[*:1])C(=O)[*:2]; AEEA = NCCOCCOCC(=O)O; Aib = CC(C)(N)C(=O)O
# Key:
# human GLP-1 receptor [1] = target: T1, human GLP-1 receptor (Homo sapiens, UniProt P43220); assay: In vitro potency (CRE luciferase; whole cells); format: cell-based; design: EC50/pM (ratio 1% HSA/0% HSA): unit not given here; details: for EC50: BHK cells; for EC50/pM (ratio 1% HSA/0% HSA): ratio of EC50 at 1% HSA to EC50 at 0% HSA
# T1 construct: expressed in transfected cells; host or cells: BHK cells, clone FCW467-12A/KZ10-1 (parent line BHKTS13), further transfected with CRE luciferase
# T1 sequence (P43220 24-463): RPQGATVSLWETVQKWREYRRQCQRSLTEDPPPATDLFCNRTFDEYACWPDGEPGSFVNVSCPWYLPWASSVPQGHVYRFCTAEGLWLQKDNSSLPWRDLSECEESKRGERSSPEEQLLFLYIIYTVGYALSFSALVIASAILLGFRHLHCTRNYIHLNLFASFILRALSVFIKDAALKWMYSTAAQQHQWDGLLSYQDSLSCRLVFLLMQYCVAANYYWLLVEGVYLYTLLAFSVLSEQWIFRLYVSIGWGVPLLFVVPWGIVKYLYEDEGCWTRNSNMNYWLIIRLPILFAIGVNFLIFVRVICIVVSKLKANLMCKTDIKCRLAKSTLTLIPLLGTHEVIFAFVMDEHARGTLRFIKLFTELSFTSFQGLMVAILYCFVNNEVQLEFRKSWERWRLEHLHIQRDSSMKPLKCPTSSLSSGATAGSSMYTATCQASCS
# Summary of the method: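 Stably transfected BHK cells carrying human GLP-1R and a CRE–firefly luciferase reporter, 5×10^3 cells/well in assay medium, run with 0% or 1% HSA in assay buffer.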
# human GLP-1 receptor [2] = target: T1, human GLP-1 receptor; assay: GLP-1 receptor binding (SPA, displacement of 125I-GLP-1); details: for IC50 (high HSA): heading: Receptor binding affinity IC50
# Summary of the method: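 Membranes from a stably transfected hamster cell line, 5-10 ug protein/sample, with WGA SPA beads and [125I]-GLP-1(7-36)NH2 at 0.06 nM final. Incubated 120 min at 30 °C with shaking, then counted.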
# [3] = 0% HSA, read-out: In vitro potency (CRE luciferase) EC50 (0% HSA)
# [4] = In vitro potency (CRE luciferase) EC50 (1% HSA), 1% HSA
# [5] = 0.001% HSA (low albumin), read-out: Receptor binding affinity IC50 (low HSA)
# [6] = Receptor binding affinity IC50 (high HSA), 2.0% HSA (high albumin)
# [7] = In vitro potency (CRE luciferase) EC50 (0% HSA), 0% HSA
# [8] = Receptor binding affinity IC50 (low HSA), 0.001% HSA (low albumin)
Compound,EC50 (human GLP-1 receptor [1]; [3]) [nM],EC50 (human GLP-1 receptor [1]; [4]) [nM],IC50 (human GLP-1 receptor [2]; [5]) [nM],IC50 (high HSA) (human GLP-1 receptor [2]; [6]) [nM],EC50/pM (ratio 1% HSA/0% HSA) (human GLP-1 receptor [1]),EC50 (human GLP-1 receptor [1]; [7]) [nM],IC50 (human GLP-1 receptor [2]; [6]) [nM],IC50 (human GLP-1 receptor [2]; [8]) [nM]
CC[C@H](C)[C@H](NC(=O)[C@H](Cc1ccccc1)NC(=O)[C@H](CCC(=O)O)NC(=O)[C@H](CCCCNC(=O)[C@@H](N)CCCCNC(=O)COCCOCCNC(=O)COCCOCCNC(=O)CC[C@H](NC(=O)CCCCCCCCCOc1ccc(C(=O)O)cc1)C(=O)O)NC(=O)[C@H](C)NC(=O)[C@H](C)NC(=O)[C@H](CCC(N)=O)NC(=O)[C@H](CCC(=O)O)NC(=O)[C@H](CCC(=O)O)NC(=O)[C@H](CC(C)C)NC(=O)[C@H](Cc1ccc(O)cc1)NC(=O)[C@H](CO)NC(=O)[C@H](CO)NC(=O)[C@@H](NC(=O)[C@H](CC(=O)O)NC(=O)[C@H](CO)NC(=O)[C@@H](NC(=O)[C@H](Cc1ccccc1)NC(=O)[C@@H](NC(=O)CNC(=O)[C@H](CCC(=O)O)NC(=O)C(C)(C)NC(=O)[C@@H](N)Cc1c[nH]cn1)[C@@H](C)O)[C@@H](C)O)C(C)C)C(=O)N[C@@H](C)C(=O)N[C@@H](Cc1c[nH]c2ccccc12)C(=O)N[C@@H](CC(C)C)C(=O)N[C@H](C(=O)N[C@@H](CCC(N)=O)C(=O)NCC(=O)N[C@@H](CCCNC(=N)N)C(=O)N[C@@H](CCCCNC(=O)[C@@H](N)CCCCNC(=O)COCCOCCNC(=O)COCCOCCNC(=O)CC[C@H](NC(=O)CCCCCCCCCOc1ccc(C(=O)O)cc1)C(=O)O)C(=O)O)C(C)C [Example 18] (H-H[Aib]EGTFTSDVSSYLEEQAAK([εLys-AEEA-AEEA-γGlu-Decanoyl(10-(4-HOOC-PhO))])EFIAWLVQGRK([εLys-AEEA-AEEA-γGlu-Decanoyl(10-(4-HOOC-PhO))])-OH; N-terminus and C-terminus assumed),,0.079,,,6.9,0.012,159,0.99
"CC[C@H](C)[C@H](NC(=O)[C@H](Cc1ccccc1)NC(=O)[C@H](CCC(=O)O)NC(=O)[C@H](CCCCNC(=O)[C@@H](N)CCCCNC(=O)[C@@H](N)CCCCNC(=O)CC[C@H](NC(=O)CCCCCCCCCCOc1ccc(C(=O)O)cc1)C(=O)O)NC(=O)[C@H](C)NC(=O)[C@H](C)NC(=O)[C@H](CCC(N)=O)NC(=O)CNC(=O)[C@H](CCC(=O)O)NC(=O)[C@H](CC(C)C)NC(=O)[C@H](Cc1ccc(O)cc1)NC(=O)[C@H](CO)NC(=O)[C@H](CO)NC(=O)[C@@H](NC(=O)[C@H](CC(=O)O)NC(=O)[C@H](CO)NC(=O)[C@@H](NC(=O)[C@H](Cc1ccccc1)NC(=O)[C@@H](NC(=O)CNC(=O)[C@H](CCC(=O)O)NC(=O)C(C)(C)NC(=O)[C@@H](N)Cc1c[nH]cn1)[C@@H](C)O)[C@@H](C)O)C(C)C)C(=O)N[C@@H](C)C(=O)N[C@@H](Cc1c[nH]c2ccccc12)C(=O)N[C@@H](CC(C)C)C(=O)N[C@H](C(=O)N[C@@H](CCCNC(=N)N)C(=O)NCC(=O)N[C@@H](CCCNC(=N)N)C(=O)N[C@@H](CCCCNC(=O)[C@@H](N)CCCCNC(=O)[C@@H](N)CCCCNC(=O)CC[C@H](NC(=O)CCCCCCCCCCOc1ccc(C(=O)O)cc1)C(=O)O)C(=O)O)C(C)C [Example 20, N^ε26-[(2S)-2-amino-6-[[(2S)-2-amino-6-[[(4S)-4-carboxy-4-[11-(4-carboxyphenoxy)undecanoylamino]butanoyl]amino]hexanoyl]amino]hexanoyl], N^ε37-[(2S)-2-amino-6-[[(2S)-2-amino-6-[[(4S)-4-carboxy-4-[11-(4-carboxyphenoxy)undecanoylamino]butanoyl]amino]hexanoyl]amino]hexanoyl]-[Aib^8,Arg^34,Lys^37]-GLP-1-(7-37)-peptide]",,0.063,,,13,0.0049,48,0.13

# Continued, in another order:
EC50 (human GLP-1 receptor [1]; [3]) [nM],EC50 (human GLP-1 receptor [1]; [4]) [nM],IC50 (human GLP-1 receptor [2]; [5]) [nM],IC50 (high HSA) (human GLP-1 receptor [2]; [6]) [nM],Compound,EC50/pM (ratio 1% HSA/0% HSA) (human GLP-1 receptor [1]),EC50 (human GLP-1 receptor [1]; [7]) [nM],IC50 (human GLP-1 receptor [2]; [6]) [nM],IC50 (human GLP-1 receptor [2]; [8]) [nM]
0.0055,1.15,0.33,222,"CC[C@H](C)[C@H](NC(=O)[C@H](Cc1ccccc1)NC(=O)[C@H](CCC(=O)O)NC(=O)[C@H](CCCCNC(=O)[C@@H](N)CCCCNC(=O)[C@@H](N)CCCCNC(=O)CC[C@H](NC(=O)CC[C@H](NC(=O)CCCCCCCCCCCCCCC(=O)O)C(=O)O)C(=O)O)NC(=O)[C@H](C)NC(=O)[C@H](C)NC(=O)[C@H](CCC(N)=O)NC(=O)CNC(=O)[C@H](CCC(=O)O)NC(=O)[C@H](CC(C)C)NC(=O)[C@H](Cc1ccc(O)cc1)NC(=O)[C@H](CO)NC(=O)[C@H](CO)NC(=O)[C@@H](NC(=O)[C@H](CC(=O)O)NC(=O)[C@H](CO)NC(=O)[C@@H](NC(=O)[C@H](Cc1ccccc1)NC(=O)[C@@H](NC(=O)CNC(=O)[C@H](CCC(=O)O)NC(=O)C(C)(C)NC(=O)[C@@H](N)Cc1c[nH]cn1)[C@@H](C)O)[C@@H](C)O)C(C)C)C(=O)N[C@@H](C)C(=O)N[C@@H](Cc1c[nH]c2ccccc12)C(=O)N[C@@H](CC(C)C)C(=O)N[C@H](C(=O)N[C@@H](CCCNC(=N)N)C(=O)NCC(=O)N[C@@H](CCCNC(=N)N)C(=O)N[C@@H](CCCCNC(=O)[C@@H](N)CCCCNC(=O)[C@@H](N)CCCCNC(=O)CC[C@H](NC(=O)CC[C@H](NC(=O)CCCCCCCCCCCCCCC(=O)O)C(=O)O)C(=O)O)C(=O)O)C(C)C [Example 12, N^ε26-[(2S)-2-amino-6-[[(2S)-2-amino-6-[[(4S)-4-carboxy-4-[[(4S)-4-carboxy-4-(15-carboxypentadecanoylamino)butanoyl]amino]butanoyl]amino]hexanoyl]amino]hexanoyl], N^ε37-[(2S)-2-amino-6-[[(2S)-2-amino-6-[[(4S)-4-carboxy-4-[[(4S)-4-carboxy-4-(15-carboxypentadecanoylamino)butanoyl]amino]butanoyl]amino]hexanoyl]amino]hexanoyl]-[Aib^8,Arg^34, Lys^37]-GLP-1-(7-37)-peptide]",194,,,
0.022,6.19,0.25,689,"CC[C@H](C)[C@H](NC(=O)[C@H](Cc1ccccc1)NC(=O)[C@H](CCC(=O)O)NC(=O)[C@H](CCCCNC(=O)[C@@H](N)CCCCNC(=O)[C@@H](N)CCCCNC(=O)CC[C@H](NC(=O)CCCCCCCCCCCCCCCCC(=O)O)C(=O)O)NC(=O)[C@H](C)NC(=O)[C@H](C)NC(=O)[C@H](CCC(N)=O)NC(=O)CNC(=O)[C@H](CCC(=O)O)NC(=O)[C@H](CC(C)C)NC(=O)[C@H](Cc1ccc(O)cc1)NC(=O)[C@H](CO)NC(=O)[C@H](CO)NC(=O)[C@@H](NC(=O)[C@H](CC(=O)O)NC(=O)[C@H](CO)NC(=O)[C@@H](NC(=O)[C@H](Cc1ccccc1)NC(=O)[C@@H](NC(=O)CNC(=O)[C@H](CCC(=O)O)NC(=O)C(C)(C)NC(=O)[C@@H](N)Cc1c[nH]cn1)[C@@H](C)O)[C@@H](C)O)C(C)C)C(=O)N[C@@H](C)C(=O)N[C@@H](Cc1c[nH]c2ccccc12)C(=O)N[C@@H](CC(C)C)C(=O)N[C@H](C(=O)N[C@@H](CCCNC(=N)N)C(=O)NCC(=O)N[C@@H](CCCNC(=N)N)C(=O)N[C@@H](CCCCNC(=O)[C@@H](N)CCCCNC(=O)[C@@H](N)CCCCNC(=O)CC[C@H](NC(=O)CCCCCCCCCCCCCCCCC(=O)O)C(=O)O)C(=O)O)C(C)C [Example 27, N^ε26-[(2S)-2-amino-6-[[(2S)-2-amino-6-[[(4S)-4-carboxy-4-(17-carboxyheptadecanoylamino)butanoyl]amino]hexanoyl]amino]hexanoyl], N^ε37-[(2S)-2-amino-6-[[(2S)-2-amino-6-[[(4S)-4-carboxy-4-(17-carboxyheptadecanoylamino)butanoyl]amino]hexanoyl]amino]hexanoyl]-[Aib^8,Arg^34,Lys^37]-GLP-1-(7-37)-peptide]",276,,,
0.008,3.63,0.84,,"CC[C@H](C)[C@H](NC(=O)[C@H](Cc1ccccc1)NC(=O)[C@H](CCC(=O)O)NC(=O)[C@H](CCCCNC(=O)[C@@H](N)CCCCNC(=O)COCCOCCNC(=O)COCCOCCNC(=O)CC[C@H](NC(=O)CCCCCCCCCCCCCCC(=O)O)C(=O)O)NC(=O)[C@H](C)NC(=O)[C@H](C)NC(=O)[C@H](CCC(N)=O)NC(=O)CNC(=O)[C@H](CCC(=O)O)NC(=O)[C@H](CC(C)C)NC(=O)[C@H](Cc1ccc(O)cc1)NC(=O)[C@H](CO)NC(=O)[C@H](CO)NC(=O)[C@@H](NC(=O)[C@H](CC(=O)O)NC(=O)[C@H](CO)NC(=O)[C@@H](NC(=O)[C@H](Cc1ccccc1)NC(=O)[C@@H](NC(=O)CNC(=O)[C@H](CCC(=O)O)NC(=O)C(C)(C)NC(=O)[C@@H](N)Cc1c[nH]cn1)[C@@H](C)O)[C@@H](C)O)C(C)C)C(=O)N[C@@H](C)C(=O)N[C@@H](Cc1c[nH]c2ccccc12)C(=O)N[C@@H](CC(C)C)C(=O)N[C@H](C(=O)N[C@@H](CCCNC(=N)N)C(=O)NCC(=O)N[C@@H](CCCNC(=N)N)C(=O)N[C@@H](CCCCNC(=O)[C@@H](N)CCCCNC(=O)COCCOCCNC(=O)COCCOCCNC(=O)CC[C@H](NC(=O)CCCCCCCCCCCCCCC(=O)O)C(=O)O)C(=O)O)C(C)C [Example 10, N^ε26-[(2S)-2-amino-6-[[2-[2-[2-[[2-[2-[2-[[(4S)-4-carboxy-4-(15-carboxypentadecanoylamino)butanoyl]amino]ethoxy]ethoxy]acetyl]amino]ethoxy]ethoxy]acetyl]amino]hexanoyl], N^ε37-[(2S)-2-amino-6-[[2-[2-[2-[[2-[2-[2-[[(4S)-4-carboxy-4-(15-carboxypentadecanoylamino)butanoyl]amino]ethoxy]ethoxy]acetyl]amino]ethoxy]ethoxy]acetyl]amino]hexanoyl]-[Aib^8,Arg^34,Lys^37]-GLP-1-(7-37)-peptide]",,,,
